Results as given in article PMC6979384, “Characterization of the plant homeodomain (PHD) reader family for their histone tail interactions” (Epigenetics & Chromatin, 2020).

What was measured:
[1] = dCypher AlphaScreen Phase A, optimal reader concentration range; assay type: binding; conditions: 100 nM biotinylated peptide; 30 min + 60 min at 23 °C; AlphaLISA; n = 2
Method: Fig. 3 dCypher histone peptide-binding assays define the PTM recognition preference of PHD proteins with high sensitivity. a–h Binding curves to determine optimal reader protein concentration for full peptide library screening on the dCypher® AlphaScreen® platform (see “Methods”). X-axes are log(protein concentration (M)) at constant peptide concentration (100 nM); Y-axes are AlphaScreen counts, representing relative strength of binding (n = 2; error bars are S.D.). i Heat map represents relative binding to H3 N-terminal peptides (left) by PHD-containing GST-tagged proteins (top) using the dCypher AlphaScreen platform. Protein concentrations can be found in Additional file 5: Table S4. Binding strength is indicated by color gradient from green to yellow (stronger to weaker). The asterisk (*) by MLL5 signifies its general preference for H3K4 methylation. Alpha counts (n = 2) were normalized individually for each protein to the highest signal for each respective assay. For full dCypher peptide screen data, see Additional file 4: Table S3
We next employed a highly sensitive proximity-based AlphaScreen histone peptide assay (dCypher®) to provide a third and orthogonal approach to analyzing the histone binding preferences for a subset of the 31 PHD proteins with respect to various histone tail PTMs. In this assay, biotinylated peptides are bound to streptavidin “donor” beads and the GST-tagged reader domains bound to Glutathione “acceptor” beads. […] Initial binding assays were conducted for each fusion protein using three peptides [H3 (1–20) with K4me0, H3K4me3 or H3K9me3] to determine the optimal reader domain concentration for full peptide library studies (Fig. 3a–h; Additional file 4: Table S3 and Additional file 5: Table S4). […]
The dCypher peptide screen assay was performed as previously described. […] Plates were incubated at 23 °C in subdued lighting for 60 min and AlphaLISA signal measured on a PerkinElmer 2104 EnVision (680 nm laser excitation, 570 nm emission filter ± 50 nm bandwidth). […]

AIRE (PP) = test: Histone peptide microarray; assay type: binding, human; conditions: sheet "Array Heatmap"; GST-tagged reader; histone peptide array, total n = 4
In short: (§1)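 A peptide microarray holding 293 synthetic histone peptides with individual or combinatorial modifications was probed with each GST-PHD protein at 0.5 μM. Values represent mean intensity (±SD) from four replicates.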

BAZ2B = test: Histone peptide microarray; assay type: binding, human; conditions: sheet "Array Heatmap"; GST-tagged reader; histone peptide array, total n = 4
In short: as §1

BPTF (PB) = test: Histone peptide microarray; assay type: binding, human; conditions: sheet "Array Heatmap"; GST-tagged reader; histone peptide array, total n = 4
In short: as §1

CHD4 (PPCC) = test: Histone peptide microarray; assay type: binding, human; conditions: sheet "Array Heatmap"; GST-tagged reader; histone peptide array, total n = 4
In short: as §1

CHD5 (PCC) = test: Histone peptide microarray; assay type: binding, human; conditions: sheet "Array Heatmap"; GST-tagged reader; histone peptide array, total n = 4
In short: as §1

CHD5 (PPCC) = test: Histone peptide microarray; assay type: binding, human; conditions: sheet "Array Heatmap"; GST-tagged reader; histone peptide array, total n = 4
In short: as §1

DIDO1 = test: Histone peptide microarray; assay type: binding, human; conditions: sheet "Array Heatmap"; GST-tagged reader; histone peptide array, total n = 4
In short: as §1

DPF2 (PPC2W2) = test: Histone peptide microarray; assay type: binding, human; conditions: sheet "Array Heatmap"; GST-tagged reader; histone peptide array, total n = 4
In short: as §1

ING1 = test: Histone peptide microarray; assay type: binding, human; conditions: sheet "Array Heatmap"; GST-tagged reader; histone peptide array, total n = 4
In short: as §1

ING2 = test: Histone peptide microarray; assay type: binding, human; conditions: sheet "Array Heatmap"; GST-tagged reader; histone peptide array, total n = 4
In short: as §1

ING3 = test: Histone peptide microarray; assay type: binding, human; conditions: sheet "Array Heatmap"; GST-tagged reader; histone peptide array, total n = 4
In short: as §1

ING4 = test: Histone peptide microarray; assay type: binding, human; conditions: sheet "Array Heatmap"; GST-tagged reader; histone peptide array, total n = 4
In short: as §1

ING5 = test: Histone peptide microarray; assay type: binding, human; conditions: sheet "Array Heatmap"; GST-tagged reader; histone peptide array, total n = 4
In short: as §1

KDM4C (TTP) = test: Histone peptide microarray; assay type: binding, human; conditions: sheet "Array Heatmap"; GST-tagged reader; histone peptide array, total n = 4
In short: as §1

KDM5A (1) = test: Histone peptide microarray; assay type: binding, human; conditions: sheet "Array Heatmap"; GST-tagged reader; histone peptide array, total n = 4
In short: as §1

KDM5A (3) = test: Histone peptide microarray; assay type: binding, human; conditions: sheet "Array Heatmap"; GST-tagged reader; histone peptide array, total n = 4
In short: as §1

KDM5B (1) = test: Histone peptide microarray; assay type: binding, human; conditions: sheet "Array Heatmap"; GST-tagged reader; histone peptide array, total n = 4
In short: as §1

KDM5B (3) = test: Histone peptide microarray; assay type: binding, human; conditions: sheet "Array Heatmap"; GST-tagged reader; histone peptide array, total n = 4
In short: as §1

KDM7A = test: Histone peptide microarray; assay type: binding, human; conditions: sheet "Array Heatmap"; GST-tagged reader; histone peptide array, total n = 4
In short: as §1

MLL5 = test: Histone peptide microarray; assay type: binding, human; conditions: sheet "Array Heatmap"; GST-tagged reader; histone peptide array, total n = 4
In short: as §1

MORC3 (CW) = test: Histone peptide microarray; assay type: binding, human; conditions: sheet "Array Heatmap"; GST-tagged reader; histone peptide array, total n = 4
In short: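 Binding read as mean relative signal from 4 replicates; microarray held 293 synthetic histone peptides with single or combinatorial PTMs. Each GST-tagged PHD reader was applied at 0.5 μM using the optimized Petell protocol.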

PHF13 = test: Histone peptide microarray; assay type: binding, human; conditions: sheet "Array Heatmap"; GST-tagged reader; histone peptide array, total n = 4
In short: as §1

PHF21A = test: Histone peptide microarray; assay type: binding, human; conditions: sheet "Array Heatmap"; GST-tagged reader; histone peptide array, total n = 4
In short: as §1

PHF23 = test: Histone peptide microarray; assay type: binding, human; conditions: sheet "Array Heatmap"; GST-tagged reader; histone peptide array, total n = 4
In short: as §1

PHF2 = test: Histone peptide microarray; assay type: binding, human; conditions: sheet "Array Heatmap"; GST-tagged reader; histone peptide array, total n = 4
In short: as §1

PHF8 = test: Histone peptide microarray; assay type: binding, human; conditions: sheet "Array Heatmap"; GST-tagged reader; histone peptide array, total n = 4
In short: as §1

PHRF1 (RP) = test: Histone peptide microarray; assay type: binding, human; conditions: sheet "Array Heatmap"; GST-tagged reader; histone peptide array, total n = 4
In short: as §1

RAG2 = test: Histone peptide microarray; assay type: binding, human; conditions: sheet "Array Heatmap"; GST-tagged reader; histone peptide array, total n = 4
In short: as §1

SP140L = test: Histone peptide microarray; assay type: binding, human; conditions: sheet "Array Heatmap"; GST-tagged reader; histone peptide array, total n = 4
In short: as §1

TAF3 = test: Histone peptide microarray; assay type: binding, human; conditions: sheet "Array Heatmap"; GST-tagged reader; histone peptide array, total n = 4
In short: as §1

TRIM66 (PB) = test: Histone peptide microarray; assay type: binding, human; conditions: sheet "Array Heatmap"; GST-tagged reader; histone peptide array, total n = 4
In short: as §1

H3K4me0 readers = test: dCypher AlphaScreen Phase B (full peptide screen), H3K4me0 readers together; assay type: binding, human; conditions: 100 nM peptide, 23 °C, n = 2
Method: Fig. 3 dCypher histone peptide-binding assays define the PTM recognition preference of PHD proteins with high sensitivity. a–h Binding curves to determine optimal reader protein concentration for full peptide library screening on the dCypher® AlphaScreen® platform (see “Methods”). X-axes are log(protein concentration (M)) at constant peptide concentration (100 nM); Y-axes are AlphaScreen counts, representing relative strength of binding (n = 2; error bars are S.D.). i Heat map represents relative binding to H3 N-terminal peptides (left) by PHD-containing GST-tagged proteins (top) using the dCypher AlphaScreen platform. Protein concentrations can be found in Additional file 5: Table S4. […]
Once the optimal protein concentration ranges for each of the eight readers were determined, we conducted the full dCypher peptide screen (293 histone peptides) (Fig. 3i; Additional file 4: Table S3).
The dCypher peptide screen assay was performed as previously described. Briefly, 5 μL of GST-tagged reader domains (optimal protein concentration for library screening determined by initial binding curves to candidate peptides) were incubated with 5 μL of 400 nM (100 nM Final) biotinylated histone peptides (EpiCypher) for 30 min at 23 °C in 1× AlphaLISA Epigenetics buffer + epigenetics buffer supplement (PerkinElmer, AL1008) in a 384-well plate. […]

## DIDO1: GST-tagged PHD, 250-340
[1]
  Phase A Optimal Range (reader concentration): 0.015 to 0.5 nM

## H3K9me3 + S10p: H3 1-20
AIRE (PP)
  Array Heatmap signal, AIRE (PP): 0.5449
BAZ2B
  Array Heatmap signal, BAZ2B: 0.4277
BPTF (PB)
  Array Heatmap signal, BPTF (PB): 0.3029
CHD4 (PPCC)
  Array Heatmap signal, CHD4 (PPCC): 0.5281
CHD5 (PCC)
  Array Heatmap signal, CHD5 (PCC): 0.7991
CHD5 (PPCC)
  Array Heatmap signal, CHD5 (PPCC): 0.486
DIDO1
  Array Heatmap signal, DIDO1: 0.5964
DPF2 (PPC2W2)
  Array Heatmap signal, DPF2 (PPC2W2): 0.6544
ING1
  Array Heatmap signal, ING1: 0.4648
ING2
  Array Heatmap signal, ING2: 0.5763
ING3
  Array Heatmap signal, ING3: 0.3956
ING4
  Array Heatmap signal, ING4: 0.3907
ING5
  Array Heatmap signal, ING5: 0.3112
KDM4C (TTP)
  Array Heatmap signal, KDM4C (TTP): 0.4574
KDM5A (1)
  Array Heatmap signal, KDM5A (1): 0.4357
KDM5A (3)
  Array Heatmap signal, KDM5A (3): 0.3848
KDM5B (1)
  Array Heatmap signal, KDM5B (1): 0.7016
KDM5B (3)
  Array Heatmap signal, KDM5B (3): 0.4113
KDM7A
  Array Heatmap signal, KDM7A: 0.3788
MLL5
  Array Heatmap signal, MLL5: 0.5167
MORC3 (CW)
  Array Heatmap signal, MORC3 (CW): 0.3534
PHF13
  Array Heatmap signal, PHF13: 0.5317
PHF21A
  Array Heatmap signal, PHF21A: 0.4454
PHF23
  Array Heatmap signal, PHF23: 0.4606
PHF2
  Array Heatmap signal, PHF2: 0.4043
PHF8
  Array Heatmap signal, PHF8: 0.3127
PHRF1 (RP)
  Array Heatmap signal, PHRF1 (RP): 0.515
RAG2
  Array Heatmap signal, RAG2: 0.2135
SP140L
  Array Heatmap signal, SP140L: 0.319
TAF3
  Array Heatmap signal, TAF3: 0.2418
TRIM66 (PB)
  Array Heatmap signal, TRIM66 (PB): 0.578
H3K4me0 readers
  loss of binding on S10 phosphorylation: four out of five of the H3K4me0 readers lose binding capacity

## KDM7A: GST-tagged PHD, 1-100
[1]
  Phase A Optimal Range (reader concentration): 0.05 to 1 nM

## MLL5: GST-tagged PHD, 100-180
[1]
  Phase A Optimal Range (reader concentration): 0.015 to 0.05 nM
